According to patent US20240083844A1, “KINASE INHIBITORS AND USES THEREOF” (ABM Therapeutics Corporation, priority 2020, published 2024):

Legend:
A375 melanoma cells = test: Antiproliferation assay in A375 cell line by CellTiter Glo; assay type: cell-based; settings: Homo sapiens, A-375, 72 hours or 144 hours
Description: (§1) In vitro anti-proliferation study of test compounds in A375 cell line by CellTiter Glo. The cells were routinely maintained as a monolayer culture in corresponding culture medium, at 37° C. with 5% CO2 in air.
(§2) Exponential growth cells were harvested by trypsin-EDTA digestion. Cell pellet was re-suspended in fresh culture medium, and the concentration adjusted as needed (the cell density per well was listed in following form). The cell viability was over 98% by Trypan blue staining. Cells were incoluated into 96 wells plates according to the plate map (90 μL/well). Plates were incubated at 37° C. and 5% CO2 overnight. The next day, the 10×compound containing medium was prepared according to the plate map. 10 μL of 10×compound containing medium was transferred into each well of the assay plates (the final DMSO concentration was 0.5%). The medium was gently mixed and incubated at 37° C. and 5% CO2 for another 72 hours or 144 hours.
(§3) Reagent was prepared according to the manufacture's instruction. 50 μL CellTiter-Glo Reagent were added in each well. Contents were mixed for 2 minutes on an orbital shaker to induce cell lysis. The plate was incubated at room temperature for 10 minutes to stabilize luminescent signal. 100 μL of reaction contents were transferred of each well from the clear plates into white walled/white opaque 96-well plates. Luminescence was recorded on Envision.
(§4) Using the luminescence measurements [time zero (T0), control growth (C), and test growth in the presence of drug at the six concentration levels (Ti)], the percentage growth was calculated at each of the drug concentrations levels.
(§5) Percentage growth inhibition (GI) was calculated as: GI (%)=[(Ti−T0)/(C-T0)]×100 for concentrations for which Ti>=T0, and GI (%)=[(Ti−T0)/T0]×100 for concentrations for which Ti<T0. Data were analyzed using the XLFit (Excel) tool, fitting to a 4-parameter equation to generate concentration response curves. Concentration of compound that inhibits 50% of control cell growth (GI50) was back-interpolated when y=50% of net growth of DMSO treated control wells using nonlinear regression with the equation: f(x) 205 [fit=(A+((B−A)/(1+((C/x)^D))))], where A is the minimum response (Ymin), B is the maximum response (Ymax), C is the inflection point of the curve (Re GI50) and D is the Hill coefficient. Growth inhibition of 50% (GI50) was calculated at the 50% Growth inhibition on the curve. Index values were the sum of Inhibition rate (IR) at each tested compound concentration.

HT-29 colon cancer cells = test: Antiproliferation assay in HT-29 cells (CellTiter Glo); assay type: cell-based; settings: Homo sapiens, 72 hours or 144 hours
Description: [The source words this procedure for another cell line and reports this cell line under the same test.] as §1, §2, §3, §4, §5

P-glycoprotein (MDR1) = test: MDCK-MDR1 permeability assay; assay type: in vitro ADME, canine; settings: dog; for efflux ratio at 120 min: MDCK-MDR1, Papp(B−A)/Papp(A−B); for Papp A→B at 120 min: MDCK-MDR1, apical to basolateral; for Papp A→B at 120 min / Papp B→A at 120 min: 1-30 μM; for Papp B→A at 120 min: MDCK-MDR1, basolateral to apical
Description: MDCK-MDR1 cells originated from transfection of Madin Darby canine kidney (MDCK) cells with the MDR1 gene, the gene encoding for the efflux protein, P-glycoprotein. This cell line is ideal for identifying substrates of P-gp, with or without an inhibitor. The cells were seeded on a Multiscreen™ plate to form a confluent monolayer over 4 days prior to the experiment. On day 4, the test compound (1-30 μM concentration) was added to the apical side of the membrane and the transport of the compound across the monolayer was monitored over a 120 minutes time period. To study drug efflux, it was also necessary to investigate transport of the compound from the basolateral compartment to the apical compartment and calculate an efflux ratio.
(§6) The permeability coefficient (Papp) was calculated from the following equation: […]
where dQ/dt is the rate of permeation of the drug across the cells, C0 is the donor compartment concentration at time zero and A is the area of the cell monolayer.
An efflux ratio was calculated from the mean apical to basolateral (A−B) Papp data and basolateral to apical (B−A) Papp data.
Efflux Ratio=Papp(B−A)/Papp(A−B)

[1] = Caco-2 permeability assay; assay type: in vitro ADME; settings: human; for efflux ratio at 120 min: Caco-2; for Papp A→B at 120 min: Caco-2, apical to basolateral; for Papp A→B at 120 min / Papp B→A at 120 min: 1-30 uM; for Papp B→A at 120 min: Caco-2, basolateral to apical
Description: Caco-2 cells are widely used as an in vitro assay to measure the permeability of a drug compound. The Caco-2 cell line is derived from a human colorectal carcinoma, and when cultured, the cells spontaneously differentiate into monolayers of polarized enterocytes. Caco-2 cells express P-glycoprotein and breast cancer resistance protein, two of the most relevant cell membrane active transporters that affect drug compound's permeability into cells and blood brain barrier.
The cells were seeded on Millipore Millicell plates and formed a confluent monolayer over 20 days prior to the experiment. On day 20, the test compound (1-30 uM concentration) was added to the apical side of the membrane and the transport of the compound across the monolayer was monitored over a 120 minutes time period. To study drug efflux, it was also necessary to investigate transport of the compound from the basolateral compartment to the apical compartment.
as §6
where dQ/dt is the rate of permeation of the drug across the cells, C0 is the donor compartment concentration at time zero and A is the area of the cell monolayer. C0 is obtained from analysis of the dosing solution at the start experiment.

[2] = Mouse pharmacokinetics study; assay type: in vivo; settings: CD-1 mice; for F / AUC / Cmax / Tmax: PO 25 mg/kg; for Vd / half-life / clearance / AUC / Cmax / Tmax: mouse, plasma; for Vd / half-life / clearance: IV 5 mg/kg; for half-life: 20% Hydroxypropyl-beta-cyclodextrin; for clearance: read-out: Clp
From the text: The pharmacokinetic properties of Compounds 5 and 6 was studied in CD-1 mice via intravenous and oral administration by using a standard protocol. The test articles were formulated in 20% Hydroxypropyl-beta-cyclodextrin, either as a clear solution or fine suspension.

Row | SMILES | GI50 (A375 melanoma cells) [nM] | GI50 (HT-29 colon cancer cells) [nM] | efflux ratio at 120 min (P-glycoprotein (MDR1)) | Papp A→B at 120 min (P-glycoprotein (MDR1)) [×10⁻⁶ cm/s] | Papp B→A at 120 min (P-glycoprotein (MDR1)) [×10⁻⁶ cm/s] | other results
1 | O=C(NC1CNC1)c1c(F)cc(F)cc1Nc1ccc(I)cc1F [Compound 1, N-(azetidin-3-yl)-2,4-difluoro-6-((2-fluoro-4-iodophenyl)amino)benzamide] | 100 to 1000 | > 1000 | – | – | – | –
2 | O=C(NC1CCNC1)c1c(F)cc(F)cc1Nc1ccc(I)cc1F (stereo not shown) [Compound 2, 2,4-difluoro-6-((2-fluoro-4-iodophenyl)amino)-N-(pyrrolidin-3-yl)benzamide] | > 1000 | – | – | – | – | –
3 | O=C(NC1CCCNC1)c1c(F)cc(F)cc1Nc1ccc(I)cc1F (stereo not shown) [Compound 3, 2,4-difluoro-6-((2-fluoro-4-iodophenyl)amino)-N-(piperidin-3-yl)benzamide] | > 1000 | – | – | – | – | –
4 | O=C(NC1CNC1)c1c(F)c(F)c(F)c(F)c1Nc1ccc(I)cc1F [Compound 4, N-(azetidin-3-yl)-2,3,4,5-tetrafluoro-6-((2-fluoro-4-iodophenyl)amino)benzamide] | 100 to 1000 | > 1000 | – | – | – | –
5 | O=C(NC1CNC1)c1c(F)cncc1Nc1ccc(I)cc1F [Compound 5, N-(azetidin-3-yl)-3-fluoro-5-((2-fluoro-4-iodophenyl)amino)isonicotinamide] | < 100 | < 100 | 3.42 | 10.5 | 36 | –
6 | CCN1CC(NC(=O)c2c(F)cncc2Nc2ccc(I)cc2F)C1 [Compound 6, N-(1-ethylazetidin-3-yl)-3-fluoro-5-((2-fluoro-4-iodophenyl)amino)isonicotinamide] | < 100 | < 100 | 0.53 | 34.1 | 18 | efflux ratio at 120 min [1]: 0.47; Papp A→B at 120 min [1]: 89.3 ×10⁻⁶ cm/s; Papp B→A at 120 min [1]: 42.3 ×10⁻⁶ cm/s; F [2]: 62.1 ± 11.4%; Vd [2]: 4.2 ± 0.33 L/kg; half-life [2]: 37.5 ± 2.58 min; clearance [2]: 77.8 ± 8 mL/min/kg; AUC [2]: 3160 ± 641 ng·h/mL; Cmax [2]: 1070 ± 328 ng/mL; Tmax [2]: 30 min
7 | CN1CC(NC(=O)c2c(F)cncc2Nc2ccc(I)cc2F)C1 [Compound 7, 3-fluoro-5-((2-fluoro-4-iodophenyl)amino)-N-(1-methylazetidin-3-yl)isonicotinamide] | < 100 | – | 0.58 | 32.5 | 19 | –
8 | O=C(NC1CN(CCF)C1)c1c(F)cncc1Nc1ccc(I)cc1F [Compound 9, 3-fluoro-5-((2-fluoro-4-iodophenyl)amino)-N-(1-(2-fluoroethyl)azetidin-3-yl)isonicotinamide] | – | < 100 | – | – | – | –
9 | C#Cc1ccc(Nc2cncc(F)c2C(=O)NC2CNC2)c(F)c1 [Compound 11, N-(azetidin-3-yl)-3-((4-ethynyl-2-fluorophenyl)amino)-5-fluoroisonicotinamide] | < 100 | < 100 | 4.08 | 14.6 | 59.5 | efflux ratio at 120 min [1]: 2.33; Papp A→B at 120 min [1]: 8.79 ×10⁻⁶ cm/s; Papp B→A at 120 min [1]: 20.5 ×10⁻⁶ cm/s; F [2]: 93.1 ± 6.0%; Vd [2]: 67.7 ± 13.9 L/kg; half-life [2]: 542 ± 41.4 min; clearance [2]: 86 ± 12 mL/min/kg; AUC [2]: 4550 ± 301 ng·h/mL; Cmax [2]: 1700 ± 95 ng/mL; Tmax [2]: 40.2 ± 17.4 min
10 | C#Cc1ccc(Nc2cncc(F)c2C(=O)NC2CN(CC)C2)c(F)c1 [Compound 12, N-(1-ethylazetidin-3-yl)-3-((4-ethynyl-2-fluorophenyl)amino)-5-fluoroisonicotinamide] | 100 to 1000 | 100 to 1000 | – | – | – | –
11 | O=C(NC1CNC1)c1c(Cl)cncc1Nc1ccc(I)cc1F [Compound 13, N-(azetidin-3-yl)-3-chloro-5-((2-fluoro-4-iodophenyl)amino)isonicotinamide] | < 100 | – | 11.8 | 4.3 | 50.8 | –
12 | O=C(NC1CNC1)c1c(F)cncc1Nc1ccc(Br)cc1Cl [Compound 14, N-(azetidin-3-yl)-3-((4-bromo-2-chlorophenyl)amino)-5-fluoroisonicotinamide] | 100 to 1000 | > 1000 | – | – | – | –
13 | O=C(NC1CNC1)c1ccncc1Nc1ccc(I)cc1F [Compound 15, N-(azetidin-3-yl)-3-((2-fluoro-4-iodophenyl)amino)isonicotinamide] | – | < 100 | – | – | – | –
14 | O=C(O)CCN1CC(NC(=O)c2ccncc2Nc2ccc(I)cc2F)C1 [Compound 18, 3-(3-(3-((2-fluoro-4-iodophenyl)amino)isonicotinamido)azetidin-1-yl)propanoic acid] | > 1000 | – | – | – | – | –
15 | O=C(O)CCCN1CC(NC(=O)c2ccncc2Nc2ccc(I)cc2F)C1 [Compound 19, 4-(3-(3-((2-fluoro-4-iodophenyl)amino)isonicotinamido)azetidin-1-yl)butanoic acid] | 100 to 1000 | – | – | – | – | –
16 | CC(=O)N1CC(NC(=O)c2c(F)cncc2Nc2ccc(I)cc2F)C1 [Compound 20, N-(1-acetylazetidin-3-yl)-3-fluoro-5-((2-fluoro-4-iodophenyl)amino)isonicotinamide] | > 1000 | – | – | – | – | –
